We go through 4 compounds from patent US12501900B2, “Heterocyclyl pyridazine as fungicidal compounds” (Bayer Aktiengesellschaft, priority 2018, dated 2025).

Molecules are shown by their SMILES.

The nature of series [1]: Measurement of LogP values by HPLC on reversed phase columns (EEC directive 79/831 Annex V.A8), methods [a], [b], [c]. Format: physicochemical. The conditions noted are these: HPLC on reversed phase column, method [a]; read-out: Log P. The essentials: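 Log P determined by reversed-phase HPLC following EEC directive 79/831 Annex V.A8. Multiple values within one method are listed joined by "+". Lambda-max taken from UV spectra over 200–400 nm at chromatographic peak maxima.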

The test system of another series is Alternaria brassicae. Put plainly: In vivo preventive test on Alternaria brassicae (leaf spot on radish or cabbage). The conditions noted are these: 144 h, 500 ppm of active ingredient, preventive spray on radish or cabbage, evaluated 6 days after inoculation, read-out: efficacy.
Another series relates to Alternaria alternata. Put plainly: Alternaria alternata in vitro cell test. The conditions noted are these: 120 h, 20 ppm of active ingredient, liquid culture, 5 days incubation, read-out: efficacy (inhibition of fungal growth). Format: cell-based.
In the next series the test system is Septoria tritici. Put plainly: In vivo preventive test on Septoria tritici (leaf spot on wheat). The conditions noted are these: Zymoseptoria tritici, in Triticum aestivum; 500 ppm of active ingredient; preventive spray on wheat; evaluated 19 days after inoculation; read-out: efficacy. The procedure:
Example: In Vivo Preventive Test on Septoria tritici (Leaf Spot on Wheat)
• Solvent: 5% by volume of Dimethyl sulfoxide • 10% by volume of Acetone • Emulsifier: 1 μl of Tween® 80 per mg of active ingredient
The active ingredients were made soluble and homogenized in a mixture of Dimethyl sulfoxide/Acetone//Tween®80 and then diluted in water to the desired concentration.
The young plants of wheat were treated by spraying the active ingredient prepared as described above. Control plants were treated only with an aqueous solution of Acetone/Dimethyl sulfoxide/Tween®80.
After 24 hours, the plants were contaminated by spraying the leaves with an aqueous suspension of Septoria tritici spores. The contaminated wheat plants were incubated for 72 hours at 17° C. and at 100% relative humidity and then for 15 days at 20° C. and at 90% relative humidity.
The test was evaluated 19 days after the inoculation. 0% means an efficacy which corresponds to that of the control plants while an efficacy of 100% means that no disease was observed.

Series [2] deals with Colletotrichum lindemuthianum. The series can be described thus: In vivo preventive test on Colletotrichum lindemuthianum (leaf spot on bean). Particulars: 168 h, 500 ppm of active ingredient, preventive spray on bean, evaluated 7 days after inoculation, read-out: efficacy.
For a further series, the system named is Botrytis cinerea. Put plainly: In vivo preventive test on Botrytis cinerea (grey mould). Particulars: 500 ppm of active ingredient, preventive spray on gherkin or cabbage, evaluated 4 to 5 days after inoculation, read-out: efficacy.
Series [3] has as its system Colletotrichum lindemuthianum. The series can be described thus: Colletotrichum lindemuthianum in vitro cell test. Format: cell-based. The conditions noted are these: 144 h, 20 ppm of active ingredient, liquid culture, 6 days incubation, read-out: efficacy (inhibition of fungal growth).

As a reminder, the inhibition is how much of the control response was suppressed. Regarding `COc1cccc(Oc2nnc(Cl)cc2C2=NOCC(Cc3ccc(C)cc3C)N2)c1F` (racemic) [I-005, rac-3-[6-chloro-3-(2-fluoro-3-methoxy-phenoxy)pyridazin-4-yl]-5-[(2,4-dimethylphenyl)methyl]-5,6-dihydro-4H-1,2,4-oxadiazine], in series [1], the chromatographic logP amounted to 3.91. For the same compound, the pest or weed control at 500 ppm (in the series with Alternaria brassicae; with Septoria tritici; in series [2]; in the series on Botrytis cinerea) was 90 to 100% in each case. For the same compound, the inhibition at 20 ppm (in the series on Alternaria alternata; in series [3]) was 90 to 100% each time.

With `C=C(OCC)c1cc(C2=NOCC(Cc3ccc(C)cc3C)N2)c(Oc2cccc(C(F)(F)F)c2)nn1` (racemic) [I-009, rac-5-[(2,4-dimethylphenyl)methyl]-3-[6-(1-ethoxyvinyl)-3-[3-(trifluoro-methyl)phenoxy]pyridazin-4-yl]-5,6-dihydro-4H-1,2,4-oxadiazine], the chromatographic logP in series [1] worked out at 4.98. Further, the pest or weed control at 500 ppm (in the series with Alternaria brassicae; in the series on Septoria tritici; in series [2]; with Botrytis cinerea) was 90 to 100% in each case. The inhibition at 20 ppm (in the series on Alternaria alternata; in series [3]) was 90 to 100% throughout.

On to `FC(F)(F)c1cccc(Oc2nnc(Cl)cc2C2=NOCC(Cc3ccc(Br)cc3Cl)N2)c1` (racemic) [I-016, rac-5-[(4-bromo-2-chloro-phenyl)methyl]-3-[6-chloro-3-[3-(trifluoromethyl)phenoxy]pyridazin-4-yl]-5,6-dihydro-4H-1,2,4-oxadiazine], for which the chromatographic logP in series [1] is 4.61. In addition, the pest or weed control at 500 ppm (in the series with Alternaria brassicae; with Septoria tritici; in series [2]; with Botrytis cinerea) was 90 to 100% each time. The inhibition at 20 ppm (in the series on Alternaria alternata; in series [3]) was 90 to 100% each time.

Regarding `COCCOc1c(Cl)nnc(Oc2cccc(C(F)(F)F)c2)c1C1=NOCC(Cc2ccc(C)cc2C)N1` (racemic) [I-072, rac-3-[6-chloro-5-(2-methoxyethoxy)-3-[3-(trifluoro-methyl)phenoxy]pyridazin-4-yl]-5-[(2,4-dimethylphenyl)methyl]-5,6-dihydro-4H-1,2,4-oxadiazine], the chromatographic logP in series [1] turned out to be 4.18. In addition, the pest or weed control at 500 ppm (with Alternaria brassicae; in the series with Septoria tritici; in series [2]; in the series with Botrytis cinerea) was 90 to 100% throughout. Besides, the inhibition at 20 ppm (with Alternaria alternata; in series [3]) was 90 to 100% in each case.
